From ChEMBL document CHEMBL3046234, “Synthesis and pharmacological evaluation of some new naphthol derived aryloxy derivatives as cognition enhancers” (2012) come the findings set out here.

The test system of assay [1] is Mus musculus. The assay can be described thus: Antiamnesic activity in Mus musculus (mouse) assessed as retention of memory at 3 mg/kg, ip measured after 24 hr by elevated plus maze test. The class given is functional. The settings on record: route intraperitoneal.
Assay [2] relates to Mus musculus. Nature of the assay: Antiamnesic activity in Mus musculus (mouse) assessed as retention of memory at 1 mg/kg, ip measured after 24 hr by elevated plus maze test. The class given is functional. The settings on record: route intraperitoneal.
In assay [3] the target is T1, Acetylcholinesterase (Mus musculus) (UniProt P21836).
T1 sequence (whole entry): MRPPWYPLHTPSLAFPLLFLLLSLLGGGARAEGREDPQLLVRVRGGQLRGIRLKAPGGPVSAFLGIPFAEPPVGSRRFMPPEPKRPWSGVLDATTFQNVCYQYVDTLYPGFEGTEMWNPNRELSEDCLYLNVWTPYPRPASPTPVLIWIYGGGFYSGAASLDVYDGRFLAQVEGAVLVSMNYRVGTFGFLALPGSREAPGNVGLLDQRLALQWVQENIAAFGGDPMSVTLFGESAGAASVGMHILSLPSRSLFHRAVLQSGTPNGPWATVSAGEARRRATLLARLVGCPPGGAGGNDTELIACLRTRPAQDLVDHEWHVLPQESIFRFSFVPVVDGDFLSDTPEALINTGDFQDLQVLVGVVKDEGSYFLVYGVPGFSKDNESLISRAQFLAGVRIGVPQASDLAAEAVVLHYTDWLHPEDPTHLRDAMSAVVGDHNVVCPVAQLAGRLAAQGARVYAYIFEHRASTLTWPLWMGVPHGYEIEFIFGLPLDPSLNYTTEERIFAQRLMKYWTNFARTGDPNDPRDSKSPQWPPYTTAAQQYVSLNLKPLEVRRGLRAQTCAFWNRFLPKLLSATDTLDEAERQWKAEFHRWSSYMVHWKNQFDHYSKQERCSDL
Nature of the assay: Inhibition of AChE in Mus musculus (mouse) brain homogenate at 10 uM after 5 min by Ellman method relative to control. The class given is tissue-based.

Assay [4] addresses T1, Acetylcholinesterase (Mus musculus). Nature of the assay: Inhibition of AChE in Mus musculus (mouse) brain homogenate assessed as residual activity measuring acetylthiocholine iodide hydrolysis per mg protein at 10 uM after 5 min by Ellman method. The class given is tissue-based.

For `NC(=O)CN1CCCC1=O` [PIRACETAM], the Activity in assay [1] worked out at 46.88%; in assay [2], 32.47%.
In assay [3], `Nc1cccc2c(OCC(=O)N3CCCC3)cccc12` registered an Imax of 31.1%. The Activity amounted to 78.5 nmol/min in assay [4], 74.47% in assay [1] and 69.11% in assay [2].
The corresponding values for `O=C(COc1cccc2ccccc12)N1CCOCC1` are 77.4%, 25.8 nmol/min, 81.65% and 62.69%.
The corresponding values for `O=C(COc1cccc2ccccc12)N1CCCCC1` are 26.8%, 83.5 nmol/min, 72.94% and 63%.
With `CN1CCN(C(=O)COc2cccc3ccccc23)CC1`, the Imax in assay [3] stood at 86.5%. Moreover, the Activity in assay [4] is 15.4 nmol/min; in assay [1], 86.18%; in assay [2] it was 73.76%.
For `Nc1cccc2c(OCC(=O)N3CCOCC3)cccc12` the same measures were 51%, 55.9 nmol/min, 75.35% and 43.26%.
For the compound `CC(C)C(=O)Nc1cccc2c(OCCN3CCOCC3)cccc12`, the Imax in assay [3] came out at 22.3%. The Activity in assay [4] was 59 nmol/min; in assay [1], 25.43%; in assay [2], 22.23%.
The corresponding values for `CCN(CC)CCOc1cccc2c(NC(=O)C(C)C)cccc12` are 26.3%, 56 nmol/min, 28.1% and 19.28%.
`CN(C)C(=O)COc1cccc2ccccc12` had an Imax in assay [3] of 33.1%. Also, the Activity stood at 76.2 nmol/min in assay [4], 77.78% in assay [1] and 52.92% in assay [2].
For `O=C(COc1cccc2ccccc12)N1CCCC1` the same measures were 73.9%, 29.7 nmol/min, 68.44% and 51.59%.
